Entries after “also recorded” stand apart in the source; their conditions may differ.
Legend:
Format in all cases: cell-based
bacterial biofilm [1] = assay: End-point confocal microscopy quantification of bacterial biofilm thickness (FIG. 8); conditions: Combination: 100 μM autoinducer-2 analog isobutyl DPD plus 0.125V AC at 10 MHz offset by 0.125V DC, compared with either alone
Source text: FIG. 8 is a bar graph showing the results of end-point confocal microscopy quantification of bacterial biofilm thickness for different treatment conditions, including combined electrical measuring and quorum sensing inhibitors (e.g., autoinducer-2 analog).
Although the preceding paragraphs address the bioelectric effect based on antibiotics, similar results can be obtained with other antimicrobial agents, such as quorum sensing inhibitors. In particular, FIG. 8 illustrates the results of experiments for different treatment conditions using autoinducer-2 analog. “LB control” represents an experiment where no electric field or autoinducer-2 analog was present. “E-field only” represents an experiment where an electrical signal of 0.125V AC at 10 MHz offset by 0.125V DC was applied to electrodes, without any autoinducer-2 analog present. “AI-2 analog” represents an experiment where autoinducer-2 analog is introduced (e.g., 100 μM autoinducer-2 analog isobutyl DPD) without any electrical signal applied to the electrodes. “Combination” represents an experiment where the electrical signal is applied to the electrodes and autoinducer-2 analog is introduced.

[2] = test system: Escherichia coli (K12 W3110) biofilm; assay: Real-time impedance sensing of biofilm during 24-hour treatment period (FIG. 6A); conditions: BE: gentamicin 10 μg/ml plus sensing, AC 50 mV at 100 Hz, 30 s of every 150 s; 24-hour treatment of 24-hour biofilm; increase corresponds to removal of biofilm
Method: (§1) In particular, each experiment employed a flow system including a growth media reservoir, waste reservoir, and the detecting device connected using polymer tubing and luer connectors in between the reservoirs. Fluid was pumped through the flow system by a peristaltic pump. The detecting device and tubing were placed in an incubator maintained at 37° C., to mimic the temperature found in an inserted catheter. Escherichia coli (K12 W3110) were cultured in incubator at 37° C. and then diluted to an OD600 of 0.25. 1 ml of the diluted E. coli solution was then introduced into the catheter tube directly via syringe. The bacteria were allowed to attach to the interior surface under static (no flow) conditions for 2 hours (referred to as the Seeding phase). […] Throughout the Growth phase, the system impedance (Z) is measured by the detecting device every 2 minutes, with the relative change being used to monitor biofilm formation. […]
As noted above, the sensing voltage applied to the electrodes of the detecting device 300 can also synergistically enhances any antimicrobial agent present to deliver a bioelectric effect. FIG. 6A illustrates the measured impedance characteristics in experiments employing a detecting device fabricated according to the structure of FIGS. 3A-3B and employing a benchtop potentiostat as the voltage source. […]

[3] = test system: Escherichia coli (K12 W3110) biofilm; assay: Crystal violet absorbance assay biomass quantification (FIG. 6B); conditions: 24-hour treatment
Method: as §1, with “syringe.” for “syringe. The bacteria were allowed to attach to the interior surface under static (no flow) conditions for 2 hours (referred to as the Seeding phase).”
CV absorbance staining was used to quantify the end-point biomass and to validate the impedance measurements of FIG. 6A. […] Optical absorbance at a wavelength (λ) of 590 nm was then measured, with increases corresponding to increased biomass. One-way analysis of variance (ANOVA) was used to determine statistical significance of the biomass quantification results.
FIG. 6B illustrates the results of the CV absorbance assay for various treatment conditions in experiments employing a detecting device fabricated according to the structure of FIGS. 3A-3B and employing a benchtop potentiostat as the voltage source.

bacterial biofilm [4] = assay: Real-time fractional relative change of impedance during treatment with threshold-triggered 100 mV signal (FIG. 7); conditions: 24 hour treatment
Method: FIG. 7 illustrates the fractional relative change of impedance measurements in experiments similar to that of FIG. 6B. In particular, treatment is performed by applying a 100 mV signal across the same electrodes used for impedance detection, in combination with near MIC levels of antibiotic, thereby generating a second bioelectric effect. This bioelectric effect was applied at regular intervals for only ˜1/7 of the total 24 hour treatment period.
The “E-field” curve represents an experiment where an intervallic 100 mV AC electrical signal (e.g., at 1 MHz) in addition to the periodic 5 mV AC detection voltage was applied to the electrodes, but without any antibiotic present. The “BE” curve represents an experiment where an intervallic 100 mV AC electrical signal (e.g., at 1 MHz) in addition to the periodic 5 mV AC detection voltage was applied to the electrodes, and with 10 μg/mL of gentamicin present. The decision to apply the 100 mV AC signal in both experiments was made by logic using the impedance data gathered in the sensing mode (i.e., using the 5 mV AC detection voltage). If the average sensing mode data point was less than a predefined threshold, then the larger 100 mV electric field treatment was applied; otherwise, the system continued in sensing mode with the periodic application of the 5 mV AC detection voltage. […]

Compound | reduction of biofilm thickness (bacterial biofilm [1]) | impedance change during the treatment period [2] | end-point biofilm biomass (CV absorbance at 590 nm) ([3]; Anti-only: antibiotic without impedance sensing) | end-point biofilm biomass (CV absorbance at 590 nm) ([3]; BE: sensing + antibiotic (gentamicin 10 μg/ml)) | change in 100 Hz impedance at the end of treatment phase (bacterial biofilm [4]; "Antibiotic": 10 μg/mL gentamicin with periodic 5 mV AC detection voltage) | change in 100 Hz impedance at the end of treatment phase (bacterial biofilm [4]; "BE": 10 μg/mL gentamicin with intervallic 100 mV AC (1 MHz) plus periodic 5 mV AC detection voltage)
CC(C)CC(=O)C(=O)C(O)CO (stereo not drawn) [autoinducer-2 analog, isobutyl DPD] | substantially improved efficacy in reducing biofilm thickness over either alone |  |  |  |  | 
gentamicin |  | ~20% | significantly higher biomass of biofilm | biomass similar to a bacteria-free control | increase in 100 Hz impedance; also recorded: as effective in treating the biofilm | increase in 100 Hz impedance
